According to PubChem BioAssay AID330 (DTP/NCI, 2004):
“And” between values parts separate entries of the source, which are not always exact repeats. Equal values may be shown once. Toxic doses and inconclusive results are not listed. Rule for the calls: active = survival T/C of 150% or more; inactive = T/C below 125% in these data.

Test system: P388 leukemia ip, CD2F1 mice, survival T/C
Experiment: NCI In Vivo Anticancer Drug Screen. Data for tumor model P388 Leukemia (intraperitoneal) in CD2F1 (CDF1) mice
Details: endpoint: median survival time, higher = longer survival
Outline: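 Mice carrying the transplanted tumor received test compound or vehicle. Survival was recorded in each group, and the value is the treated-group measurement divided by that of the vehicle-treated control group.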

[1] = dose: 50.0 mg/kg/injection, schedule: Q01DX009 (ip), vehicle: saline with Tween-80
[2] = dose: 50.0 mg/kg/injection, schedule: Q01DX005 (ip), vehicle: saline with Tween-80
[3] = dose: 100.0 mg/kg/injection, schedule: Q01DX005 (ip), vehicle: saline with Tween-80
[4] = dose: 100.0 mg/kg/injection, schedule: Q01DX009 (ip), vehicle: saline
[5] = dose: 200.0 mg/kg/injection, schedule: Q01DX009 (ip), vehicle: saline
[6] = dose: 60.0 mg/kg/injection, schedule: Q01DX005 (ip), vehicle: saline with Tween-80
[7] = dose: 120.0 mg/kg/injection, schedule: Q01DX005 (ip), vehicle: saline with Tween-80
[8] = dose: 240.0 mg/kg/injection, schedule: Q01DX005 (ip), vehicle: saline with Tween-80
[9] = dose: 100.0 mg/kg/injection, schedule: Q01DX009 (ip), vehicle: saline with Tween-80
[10] = dose: 200.0 mg/kg/injection, schedule: Q01DX009 (ip), vehicle: saline with Tween-80

Measured: T/C

FC(F)(F)c1ccccc1NC(=S)SCc1ccccc1
inactive: dose: 50.0 mg/kg/injection, schedule: Q01DX009 (ip), vehicle: suspension in saline 91 % of control | dose: 100.0 mg/kg/injection, schedule: Q01DX009 (ip), vehicle: suspension in saline 90 % of control | dose: 200.0 mg/kg/injection, schedule: Q01DX009 (ip), vehicle: suspension in saline 90 % of control

Cc1ccc(OCC(COc2ccc(C)cc2)(COc2ccc(C)cc2)COc2ccc(C)cc2)cc1
inactive: dose: 12.5 mg/kg/injection, schedule: Q01DX009 (ip), vehicle: saline with Tween-80 86 % of control | dose: 25.0 mg/kg/injection, schedule: Q01DX009 (ip), vehicle: saline with Tween-80 86 % of control | [1] 86 % of control

CSC(SC)(SC)c1cc(-c2c(Cl)cccc2Cl)no1
inactive: [2] 93 % of control | [3] 102 % of control | dose: 200.0 mg/kg/injection, schedule: Q01DX005 (ip), vehicle: saline with Tween-80 93 % of control

Cn1cnc([N+](=O)[O-])c1Sc1ncn[nH]1
inactive: dose: 12.5 mg/kg/injection, schedule: Q01DX009 (ip), vehicle: saline 106 % of control | dose: 25.0 mg/kg/injection, schedule: Q01DX009 (ip), vehicle: saline 122 % of control | [4] 122 % of control | [5] 113 % of control

COC(=O)C1=C(C)NC(C)=C(C(=O)OC)C1c1ccc(NC(C)=O)cc1
inactive: [6] 113 % of control | [7] 111 % of control | [8] 113 % of control

O=S(=O)(Nc1ccccc1F)c1ccc(F)cc1
inactive: [6] 106 % of control | [7] 100 % of control | [8] 106 % of control

CCCCc1ccc(N2C(N)=NC(N)=NC2(C)C)cc1
inactive: dose: 3.12 mg/kg/injection, schedule: Q01DX005 (ip), vehicle: Klucel (hydroxypropylcellulose) (HPC) 108 % of control and 106 % of control and 111 % of control | dose: 6.25 mg/kg/injection, schedule: Q01DX005 (ip), vehicle: Klucel (hydroxypropylcellulose) (HPC) 110 % of control [middle of 4 runs] | dose: 12.5 mg/kg/injection, schedule: Q01DX005 (ip), vehicle: Klucel (hydroxypropylcellulose) (HPC) 114 % of control [middle of 4 runs] | dose: 25.0 mg/kg/injection, schedule: Q01DX005 (ip), vehicle: Klucel (hydroxypropylcellulose) (HPC) 120 % of control and 109 % of control

Nc1ncnc2c1nc(N)n2C1OC(CO)C(O)C1O (centres undefined)
inactive: dose: 6.0 mg/kg/injection, schedule: Q01DX005 (ip), vehicle: saline 122 % of control | dose: 25.0 mg/kg/injection, schedule: Q01DX005 (ip), vehicle: saline 119 % of control

NC(CSCSCc1ccccc1)C(=O)O (centres undefined)
inactive: dose: 25.0 mg/kg/injection, schedule: Q01DX009 (ip), vehicle: other 102 % of control | dose: 50.0 mg/kg/injection, schedule: Q01DX009 (ip), vehicle: other 110 % of control | dose: 100.0 mg/kg/injection, schedule: Q01DX009 (ip), vehicle: other 102 % of control | dose: 200.0 mg/kg/injection, schedule: Q01DX009 (ip), vehicle: other 106 % of control

CC1=NOC(=O)/C1=C/c1ccccc1C
inactive: [2] 104 % of control | [3] 104 % of control

O=C(c1ccccc1)C(O)NC(=S)c1cccnc1 (centres undefined)
inactive: [1] 106 % of control | [9] 107 % of control | [10] 116 % of control

CC(=O)Oc1ccc2c(c1)C(=O)c1nc(C)c(C)nc1C2=O
inactive: dose: 50.0 mg/kg/injection, schedule: Q01DX005 (ip), vehicle: Klucel (hydroxypropylcellulose) (HPC) 102 % of control | dose: 100.0 mg/kg/injection, schedule: Q01DX005 (ip), vehicle: Klucel (hydroxypropylcellulose) (HPC) 102 % of control | dose: 200.0 mg/kg/injection, schedule: Q01DX005 (ip), vehicle: Klucel (hydroxypropylcellulose) (HPC) 109 % of control

O=C1CSC(=S)N1/N=C/c1ccc(Cl)c(Cl)c1
inactive: dose: 1.56 mg/kg/injection, schedule: Q01DX009 (ip), vehicle: saline with Tween-80 100 % of control | dose: 3.13 mg/kg/injection, schedule: Q01DX009 (ip), vehicle: saline with Tween-80 110 % of control | dose: 6.25 mg/kg/injection, schedule: Q01DX009 (ip), vehicle: saline with Tween-80 120 % of control

C/C1=C2N=C(/C=C3N=C(/C(C)=C4\[N-]C(C(CC(N)=O)C4(C)CCC(=O)NCC(C)OP(=O)(O)OC4C(CO)OC(n5cnc6cc(C)c(C)cc65)C4O)C4(C)N=C1C(CCC(N)=O)C4(C)CC(N)=O)C(CCC(N)=O)C\3(C)C)C(CCC(N)=O)C/2(C)CC(N)=O.[CH2-]CC.[Co+2] (centres undefined)
inactive: dose: 76.1 micrograms/kg/injection, schedule: Q#A X Z (ip), vehicle: water 88 % of control | dose: 7610.0 micrograms/kg/injection, schedule: Q#A X Z (ip), vehicle: water 99 % of control

Cc1ccc2c(c1)C(=O)c1cc3c(cc1C2=O)OCO3
inactive: [6] 87 % of control | [7] 91 % of control | [8] 89 % of control and 91 % of control

C1C[O][Ge]2([O]1)[O]CC[O]2
inactive: dose: 50.0 mg/kg/injection, schedule: Q01DX009 (ip), vehicle: saline 108 % of control | [4] 101 % of control | [5] 102 % of control

CC1(O)CCC2C3CCC4CC(=O)CCC4(C)C3(F)C(O)CC21C (centres undefined)
inactive: [9] 100 % of control | dose: 100.0 mg/kg/injection, schedule: Q04DX003 (ip), vehicle: saline with Tween-80 100 % of control | [10] 100 % of control | dose: 200.0 mg/kg/injection, schedule: Q04DX003 (ip), vehicle: saline with Tween-80 100 % of control | dose: 400.0 mg/kg/injection, schedule: Q01DX009 (ip), vehicle: saline with Tween-80 95 % of control | dose: 400.0 mg/kg/injection, schedule: Q04DX003 (ip), vehicle: saline with Tween-80 100 % of control

COc1cc(O)c(C(C)c2ccccc2)cc1N=NC(N)=O (centres undefined)
inactive: dose: 6.25 mg/kg/injection, schedule: Q01DX005 (ip), vehicle: saline with Tween-80 96 % of control | dose: 12.5 mg/kg/injection, schedule: Q01DX005 (ip), vehicle: saline with Tween-80 90 % of control | dose: 25.0 mg/kg/injection, schedule: Q01DX005 (ip), vehicle: saline with Tween-80 89 % of control

CC(C)CCCC(C)C1CCC2C3CCC4CC(=O)C(C5(O)C(=O)Nc6ccccc65)CC4(C)C3CCC12C (centres undefined)
inactive: dose: 6.25 mg/kg/injection, schedule: Q01DX009 (ip), vehicle: Klucel (hydroxypropylcellulose) (HPC) 95 % of control | dose: 12.5 mg/kg/injection, schedule: Q01DX009 (ip), vehicle: Klucel (hydroxypropylcellulose) (HPC) 95 % of control | dose: 200.0 mg/kg/injection, schedule: Q01DX009 (ip), vehicle: Klucel (hydroxypropylcellulose) (HPC) 90 % of control

CCCCCCC(O)Cc1cc(-c2ccccc2)nc(=O)[nH]1 (centres undefined)
inactive: dose: 15.0 mg/kg/injection, schedule: Q01DX005 (ip), vehicle: saline with Tween-80 97 % of control | [6] 87 % of control | [8] 95 % of control

C=CC(CO)N1CC1 (centres undefined)
inactive: dose: 0.78 mg/kg/injection, schedule: Q01DX009 (ip), vehicle: saline 108 % of control | dose: 1.56 mg/kg/injection, schedule: Q01DX009 (ip), vehicle: saline 108 % of control | dose: 3.13 mg/kg/injection, schedule: Q01DX009 (ip), vehicle: saline 108 % of control

CCC(O)C1(C#Cc2ccccc2)Sc2ccccc2N1C (centres undefined)
inactive: [6] 107 % of control | [7] 110 % of control | [8] 110 % of control

Cc1c(N)nc([C@H](CC(N)=O)NC[C@H](N)C(N)=O)nc1C(=O)N[C@H](C(=O)N[C@H](C)[C@@H](O)CC(=O)N[C@H](C(=O)NC(O[C@@H]1O[C@@H](C)[C@@H](N)[C@@H](O)[C@H]1O)C(O)c1nc(-c2nc(C(=O)NCCCCN)cs2)cs1)[C@@H](C)O)[C@@H](O[C@@H]1O[C@@H](CO)[C@@H](O)[C@H](O)[C@@H]1O[C@H]1O[C@H](CO)[C@@H](O)[C@H](OC(N)=O)[C@@H]1O)c1c[nH]cn1 (some centres undefined)
inactive: dose: 0.5 mg/kg/injection, schedule: Q01DX009 (ip), vehicle: water 101 % of control | dose: 1.0 mg/kg/injection, schedule: Q01DX009 (ip), vehicle: water 98 % of control | dose: 2.0 mg/kg/injection, schedule: Q01DX009 (ip), vehicle: water 124 % of control | dose: 4.0 mg/kg/injection, schedule: Q01DX009 (ip), vehicle: water 95 % of control | dose: 8.0 mg/kg/injection, schedule: Q01DX009 (ip), vehicle: water 123 % of control

CC(=O)N1CCc2cc([N+](=O)[O-])cc(Br)c21
inactive: dose: 12.5 mg/kg/injection, schedule: Q01DX009 (ip), vehicle: distilled water + Tween-80 107 % of control | dose: 25.0 mg/kg/injection, schedule: Q01DX009 (ip), vehicle: distilled water + Tween-80 98 % of control | dose: 50.0 mg/kg/injection, schedule: Q01DX009 (ip), vehicle: distilled water + Tween-80 91 % of control | dose: 100.0 mg/kg/injection, schedule: Q01DX009 (ip), vehicle: distilled water + Tween-80 98 % of control | dose: 200.0 mg/kg/injection, schedule: Q01DX009 (ip), vehicle: distilled water + Tween-80 91 % of control
